Assay: Evaluation of heat resistance by thermogravimetric analyzer (TGA), primary thermal decomposition temperature
Format: physicochemical
Details: N2 atmospheric environment, FIG. 9
Experimental: In this experiment, the evaluation of heat resistance was defined as an extrapolated intersection point (primary thermal decomposition temperature) between a starting mass reference line and the tangent line of the maximum slope point in the first mass reduction section of a mass loss curve measured by a thermogravimetric analyzer (TGA) in an N2 atmospheric environment.
In the present disclosure, it is determined that when the primary thermal decomposition temperature of the compound has a value higher than the primary thermal decomposition temperature of the material before anion substitution, the heat resistance has increased.

Structure (SMILES)	Td (thermal decomposition temperature)	heat resistance compared with the material before anion substitution
C=C(C)C(=O)OCC[N+](C)(C)CCCCCCCCCC.[Br-] [Comparative Example 4-1]	about 230 °C	–
C=C(C)C(=O)OCC[N+](C)(C)CCCCCCCCCC.O=S(=O)([O-])O [Example 4-1]	–	heat resistance is improved

Source: US20250122144A1, “Compound and Molded Body Comprising Same” (LG Chem, Ltd., priority 2022, published 2025)
